Data reported in patent publication US9068166B2, “Use of compounds for inducing differentiation of mesenchymal stem cells to chondrocytes” (Industry-Academic Cooperation Foundation Yonsei University, priority 2010, dated 2015).

Legend:
[1] = tested on: human adipose tissue-derived mesenchymal stem cells; assay: Alcian Blue dyeing of sulfated proteoglycan (quantified chondrogenesis); type: cell-based; details: 1 μM, 11 days, optical density at 650 nm, p<0.05 vs. control, FIG. 1
Experimental: (§1) 60 cc of an expanding solution (obtained by adding 30 mL of 1% lidocaine, 30 mL of 0.5% bupivacaine, 10 mL of 4.2% sodium bicarbonate and 1 mg of epinephrine to 1 L of normal water for injection) was applied to the periphery of a navel under sterile conditions. Fats were suctioned using Mercedes 3 mm×9 cm Aspiration Luer Lock Cannula (Byron Medical, Tucson, Ariz.), and then instantly kept on ice. Since a lipoaspirate filtered through a 250 mm sieve included an anesthetic and a contaminant such as blood, the lipoaspirate was washed with phosphate buffered saline (PBS) to remove the anesthetic and the contaminant. Collagenase I (1 mg/mL; Worthington Biochemical Corp., Lakewood, N.J.) was added to the obtained fat tissues, stirred, and then kept at 37° C. for an hour. The suspended adipose tissues were centrifuged at 1,500×g for 10 minutes, and a supernatant containing matured fat cells was discarded. […]
Cells were first washed three times with PBS (Gibco), and then immobilized with 100% methanol (Sigma) at −20° C. for 10 minutes. […] To quantify the dyeing intensity, the dyed culture plate was washed three times with PBS, and each well was extracted with 1 ml of 6 M guanidine-HCl (Sigma) overnight at room temperature. The optical density of the extracted dye was measured at 650 nm.

[2] = tested on: human adipose tissue-derived mesenchymal stem cells; assay: Sandwich ELISA of aggrecan expression (chondrocyte marker) in treated mesenchymal stem cells; type: cell-based; details: for induction of differentiation of mesenchymal stem cells to chondrocytes (aggrecan expression) compared with A1942: sandwich ELISA, p<0.001 vs. control, FIG. 5
Experimental: (§2) 60 cc of an expanding solution (obtained by adding 30 mL of 1% lidocaine, 30 mL of 0.5% bupivacaine, 10 mL of 4.2% sodium bicarbonate and 1 mg of epinephrine to 1 L of normal water for injection) was applied to the periphery of a navel under sterile conditions. Fats were suctioned using Mercedes 3 mm×9 cm Aspiration Luer Lock Cannula (Byron Medical, Tucson, Ariz.), and then instantly kept on ice. Since a lipoaspirate filtered through a 250 mm sieve included an anesthetic and a contaminant such as blood, the lipoaspirate was washed with phosphate buffered saline (PBS) to remove the anesthetic and the contaminant. Collagenase I (1 mg/mL; Worthington Biochemical Corp., Lakewood, N.J.) was added to the obtained fat tissues, stirred, and then kept at 37° C. for an hour. The suspended adipose tissues were centrifuged at 1,500×g for 10 minutes, and a supernatant containing matured fat cells was discarded. The obtained stroma vascular (SV) cells were washed with 0.1% BSA, suspended in an M-199 medium (including 12.8% fetal bovine serum, heparin, 10,000 U/mL penicillin G, 25 mg/mL amphotericin B, and […] streptomycin), plated on a gelatin-coated tissue culture flask, and then incubated. After 24 hours, the tissue culture flask was washed to remove non-attached cells, and the incubation was continued.
[…] In this case, the mesenchymal stem cells were incubated for 11 days while replacing a medium including the compound of Formula 1 with a fresh one once every 3 days.
A capture antibody was bound to the bottom of each well, and the plate was then incubated overnight at 4° C. The plate was washed twice with PBS (Gibco), and treated with 100 μl of PBS containing 3% BSA at room temperature for 2 to 3 hours. The plate was washed twice with PBS, and a cell lysate was added to each well. Then, the plate was incubated at room temperature for 2 hours under a wet atmosphere. The plate was washed four times with PBS containing 0.02% Tween-20 (Sigma). A detector antibody was added to the plate, and the plate was then incubated at room temperature for 2 hours under a wet atmosphere. Thereafter, the plate was incubated with a peroxidase-conjugated secondary antibody at 37° C. for an hour. Finally, the plate was treated with 100 μl of a tetramethylbenzidine (TMB) solution (Sigma) as a substrate, and 25 μl of 0.1 M H2SO4 was added as a terminating buffer to stop the reaction. Immediately after the reaction, the absorbance was measured at 450 nm using an ELISA plate reader (Bio-Rad).

[3] = tested on: fibronectin, α5-integrin, N-cadherin; assay: Semi-quantitative RT-PCR of fibronectin, integrin α5β1 and N-cadherin in treated mesenchymal stem cells; type: cell-based, human; details: 1 μM for 11 days, normalized to GAPDH, FIG. 4
Experimental: as §2
When the mesenchymal stem cells were subcultured twice, the mesenchymal stem cells were seeded at a density of 2×10^5 cells/ml in a 60 mm plate containing the same medium as described above, and treated with the compound of Formula 1 (each of the compounds of Examples 1 to 28) at a final concentration of 10 nM, 100 nM, 1 μM, or 10 μM. In this case, the mesenchymal stem cells were incubated for 11 days while replacing a medium including the compound of Formula 1 with a fresh one once every 3 days.
Expression levels of various genes were analyzed through an RT-PCR method. Total RNA was obtained using an Ultraspect™-II RNA system (Biotecx Laboratories, Inc., USA) and an easy-BLUE™ kit (Intron Biotechnology, Seoul, South Korea). […]

ERK = assay: Western blotting of ERK phosphorylation in treated mesenchymal stem cells; type: cell-based, human; details: FIG. 3
Experimental: as §1, with “contaminant.” for “contaminant. Collagenase I (1 mg/mL; Worthington Biochemical Corp., Lakewood, N.J.) was added to the obtained fat tissues, stirred, and then kept at 37° C. for an hour. The suspended adipose tissues were centrifuged at 1,500×g for 10 minutes, and a supernatant containing matured fat cells was discarded.”
Cells were washed once with PBS, and lysed for approximately 20 minutes in a lysis buffer (Cell Signaling Technology) containing 20 mM Tris (pH 7.5), 150 mM NaCl, 1 mM Na2-EDTA, 1 mM EGTA, 1% Triton, 2.5 mM sodium pyrophosphate, 1 mM β-glycerophosphate, 1 mM Na3VO4, 1 mg/ml leupeptin and 1 mM phenylmethylsulfonyl fluoride. […] A concentration of proteins was measured using a Bradford protein assay kit (Bio-Rad). A quantitative protein was separated on a 12% sodium dodecyl sulfate-polyacrylamide gel, and transferred to a polyvinylidene difluoride membrane (Millipore). […] After thorough washing, a band was detected using an improved chemiluminogenic reagent (GE Healthcare Life Sciences). The intensity of the band was quantified using an Image J 1.40 g software (NIH).

For `O=S(=O)(Nc1ccc(O)cc1)c1cccc2cccnc12` [Compound A1942, Quinoline-8-sulfonic acid (4-hydroxy-phenyl)-amide], the “relative absorbance (Alcian Blue) versus control” value [1] was “approximately 3 times”, the “expression level of aggrecan” value ([2]; 0.1, 0.5 and 1 μM for 11 days, FIG. 2) was “increased in a dose-dependent manner” and the “expression level of N-cadherin” value [3] was “decreased with time”. For the same molecule, the “expression level of fibronectin” value [3] was “decreased with time”, the “expression level of α5-integrin” value [3] was “decreased with time” and the “phosphorylation level of ERK” value (ERK; 1 μM for 11 days) was “increased with time”.
In the case of `O=S(=O)(Nc1cccc2ccc(O)cc12)c1cccc2cccnc12` [Compound A1943, Quinoline-8-sulfonic acid (7-hydroxy-naphthalen-1-yl)-amide], the “induction of differentiation of mesenchymal stem cells to chondrocytes (aggrecan expression) compared with A1942” value (shortened to “induction of differentiation … with A1942”) [2] is reported as “at a level similar to the A1942 compound”.
With `O=C(O)c1cc(NS(=O)(=O)c2cccc3cccnc23)ccc1O` [Compound A1944, 2-Hydroxy-5-(quinoline-8-sulfonylamino)-benzoic acid] the “induction of differentiation … with A1942” value [2] was “at a level similar to the A1942 compound”.
For `CC(C)(C)c1ccc(S(=O)(=O)Nc2ccc(O)c(C(=O)O)c2)cc1` [Compound A1948, 5-(4-Tert-butyl-benzenesulfonyl-amino)-2-hydroxy-benzoic acid], the “induction of differentiation … with A1942” value [2] was “at a level similar to the A1942 compound”.
With `O=S(=O)(Nc1cccc2c(O)cccc12)c1ccc(-c2ccccc2)cc1` [Compound A1949, Biphenyl-4-sulfonic acid (5-hydroxy-naphthalen-1-yl)-amide] the “induction of differentiation … with A1942” value [2] was “at a level similar to the A1942 compound”.
`Cc1ccc(S(=O)(=O)Nc2ccc(O)c3ccccc23)cc1` [Compound A1950, N-(4-hydroxy-naphthalen-1-yl)-4-methyl-benzenesulfonamide] was tested, and the “induction of differentiation … with A1942” value [2] was “at a level similar to the A1942 compound”.
With `N#CC(=C(/N)Sc1ccccc1N)/C(C#N)=C(\N)Sc1ccccc1N` [Compound U0126, reference compound] the “expression level of aggrecan, co-treatment with A1942” value ([2]; mesenchymal stem cells treated with 1 μM A1942 + U0126, FIG. 2) was “reduced an expression level of the aggrecan” and the “phosphorylation level of ERK, group treated with A1942 and U0126” value (ERK; A1942 1 μM plus U0126, 11 days) was “did not increase with time”.
